Values joined by “and” are separate entries in the source; they are usually repeats but may differ in a detail not shown here. Identical values can stand only once. Toxic doses and inconclusive results are not listed.
Tested on: CD2F1 mice, L1210 leukemia ip, survival T/C
Test: NCI In Vivo Anticancer Drug Screen. Data for tumor model L1210 Leukemia (intraperitoneal) in CD2F1 (CDF1) mice
Details: higher = longer survival
How it was run: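 Ratio T/C, where T is the treated-group value and C the vehicle-dosed control value, from mice implanted with a transplantable tumor.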

COc1cccc2c1C(=O)c1c(O)c3c(c(O)c1C2=O)C[C@@](O)(/C(C)=N/NC(=O)c1ccccc1)C[C@@H]3OC1CC(N)C(O)C(C)O1 (some centres undefined)
T/C (endpoint: mean survival time, dose: 0.5 mg/kg/injection, schedule: Q04DX003 (ip), vehicle: water): 91 % of control | T/C (endpoint: mean survival time, dose: 0.65 mg/kg/injection, schedule: Q01DX009 (ip), vehicle: saline): 117 % of control | T/C (endpoint: mean survival time, dose: 1.0 mg/kg/injection, schedule: Q01DX009 (ip), vehicle: water): 107 % of control | T/C (endpoint: mean survival time, dose: 1.0 mg/kg/injection, schedule: Q04DX003 (ip), vehicle: water): 91 % of control | T/C (endpoint: mean survival time, dose: 1.08 mg/kg/injection, schedule: Q01DX009 (ip), vehicle: saline): 120 % of control | T/C (endpoint: mean survival time, dose: 2.0 mg/kg/injection, schedule: Q01DX009 (ip), vehicle: water): 113 % of control | T/C (endpoint: mean survival time, dose: 2.0 mg/kg/injection, schedule: Q04DX003 (ip), vehicle: water): 96 % of control | T/C (endpoint: mean survival time, dose: 3.0 mg/kg/injection, schedule: Q01DX009 (ip), vehicle: saline): 150 % of control | T/C (endpoint: mean survival time, dose: 3.0 mg/kg/injection, schedule: Q04DX003 (ip), vehicle: saline): 160 % of control | T/C (endpoint: mean survival time, dose: 4.0 mg/kg/injection, schedule: Q01DX009 (ip), vehicle: water): 120 % of control | T/C (endpoint: mean survival time, dose: 4.0 mg/kg/injection, schedule: Q04DX003 (ip), vehicle: water): 105 % of control | T/C (endpoint: mean survival time, dose: 5.0 mg/kg/injection, schedule: Q04DX003 (ip), vehicle: saline): 163 % of control | T/C (endpoint: mean survival time, dose: 8.0 mg/kg/injection, schedule: Q01DX009 (ip), vehicle: saline): 110 % of control | T/C (endpoint: mean survival time, dose: 8.0 mg/kg/injection, schedule: Q04DX003 (ip), vehicle: water): 124 % of control | T/C (endpoint: mean survival time, dose: 22.2 mg/kg/injection, schedule: Q04DX003 (ip), vehicle: saline): 103 % of control | T/C (endpoint: median survival time, dose: 0.13 mg/kg/injection, schedule: Q03HX008 (ip), vehicle: water): 106 % of control | T/C (endpoint: median survival time, dose: 0.13 mg/kg/injection, schedule: Q03HX016 (ip), vehicle: water): 97 % of control | T/C (endpoint: median survival time, dose: 0.13 mg/kg/injection, schedule: Q03HX024 (ip), vehicle: water): 106 % of control | T/C (endpoint: median survival time, dose: 0.25 mg/kg/injection, schedule: Q03HX008 (ip), vehicle: water): 107 % of control | T/C (endpoint: median survival time, dose: 0.25 mg/kg/injection, schedule: Q03HX016 (ip), vehicle: water): 104 % of control | T/C (endpoint: median survival time, dose: 0.25 mg/kg/injection, schedule: Q03HX024 (ip), vehicle: water): 112 % of control | T/C (endpoint: median survival time, dose: 0.5 mg/kg/injection, schedule: Q01DX009 (ip), vehicle: water): 105 % of control | T/C (endpoint: median survival time, dose: 0.5 mg/kg/injection, schedule: Q01DX009 (sc), vehicle: water): 101 % of control | T/C (endpoint: median survival time, dose: 0.5 mg/kg/injection, schedule: Q03HX008 (ip), vehicle: water): 114 % of control | T/C (endpoint: median survival time, dose: 0.5 mg/kg/injection, schedule: Q03HX016 (ip), vehicle: water): 105 % of control | T/C (endpoint: median survival time, dose: 0.5 mg/kg/injection, schedule: Q03HX024 (ip), vehicle: water): 115 % of control | T/C (endpoint: median survival time, dose: 0.5 mg/kg/injection, schedule: Q04DX003 (ip), vehicle: water): 100 % of control | T/C (endpoint: median survival time, dose: 1.0 mg/kg/injection, schedule: Q01DX001 (ip), vehicle: water): 98 % of control | T/C (endpoint: median survival time, dose: 1.0 mg/kg/injection, schedule: Q01DX001 (sc), vehicle: water): 96 % of control | T/C (endpoint: median survival time, dose: 1.0 mg/kg/injection, schedule: Q01DX009 (ip), vehicle: water): 106 % of control | T/C (endpoint: median survival time, dose: 1.0 mg/kg/injection, schedule: Q01DX009 (sc), vehicle: water): 97 % of control | T/C (endpoint: median survival time, dose: 1.0 mg/kg/injection, schedule: Q03HX008 (ip), vehicle: water): 118 % of control | T/C (endpoint: median survival time, dose: 1.0 mg/kg/injection, schedule: Q03HX016 (ip), vehicle: water): 109 % of control | T/C (endpoint: median survival time, dose: 1.0 mg/kg/injection, schedule: Q04DX003 (ip), vehicle: water): 116 % of control and 111 % of control | T/C (endpoint: median survival time, dose: 1.0 mg/kg/injection, schedule: Q08DX002 (ip), vehicle: water): 107 % of control | T/C (endpoint: median survival time, dose: 2.0 mg/kg/injection, schedule: Q01DX001 (ip), vehicle: water): 105 % of control | T/C (endpoint: median survival time, dose: 2.0 mg/kg/injection, schedule: Q01DX001 (sc), vehicle: water): 102 % of control | T/C (endpoint: median survival time, dose: 2.0 mg/kg/injection, schedule: Q01DX009 (ip), vehicle: water): 116 % of control | T/C (endpoint: median survival time, dose: 2.0 mg/kg/injection, schedule: Q01DX009 (sc), vehicle: water): 97 % of control | T/C (endpoint: median survival time, dose: 2.0 mg/kg/injection, schedule: Q04DX003 (ip), vehicle: water): 103 % of control and 112 % of control | T/C (endpoint: median survival time, dose: 2.0 mg/kg/injection, schedule: Q08DX002 (ip), vehicle: water): 107 % of control | T/C (endpoint: median survival time, dose: 4.0 mg/kg/injection, schedule: Q01DX001 (ip), vehicle: water): 113 % of control | T/C (endpoint: median survival time, dose: 4.0 mg/kg/injection, schedule: Q01DX001 (sc), vehicle: water): 98 % of control | T/C (endpoint: median survival time, dose: 4.0 mg/kg/injection, schedule: Q01DX009 (oral), vehicle: water): 98 % of control | T/C (endpoint: median survival time, dose: 4.0 mg/kg/injection, schedule: Q01DX009 (sc), vehicle: water): 97 % of control | T/C (endpoint: median survival time, dose: 4.0 mg/kg/injection, schedule: Q03HX016 (ip), vehicle: water): 124 % of control | T/C (endpoint: median survival time, dose: 4.0 mg/kg/injection, schedule: Q03HX024 (ip), vehicle: water): 104 % of control | T/C (endpoint: median survival time, dose: 4.0 mg/kg/injection, schedule: Q04DX003 (ip), vehicle: water): 124 % of control | T/C (endpoint: median survival time, dose: 4.0 mg/kg/injection, schedule: Q08DX002 (ip), vehicle: water): 113 % of control | T/C (endpoint: median survival time, dose: 8.0 mg/kg/injection, schedule: Q01DX001 (ip), vehicle: water): 117 % of control | T/C (endpoint: median survival time, dose: 8.0 mg/kg/injection, schedule: Q01DX001 (sc), vehicle: water): 98 % of control | T/C (endpoint: median survival time, dose: 8.0 mg/kg/injection, schedule: Q01DX009 (oral), vehicle: water): 95 % of control | T/C (endpoint: median survival time, dose: 8.0 mg/kg/injection, schedule: Q01DX009 (sc), vehicle: water): 103 % of control | T/C (endpoint: median survival time, dose: 8.0 mg/kg/injection, schedule: Q08DX002 (ip), vehicle: water): 124 % of control | T/C (endpoint: median survival time, dose: 16.0 mg/kg/injection, schedule: Q01DX001 (oral), vehicle: water): 97 % of control | T/C (endpoint: median survival time, dose: 16.0 mg/kg/injection, schedule: Q01DX001 (sc), vehicle: water): 97 % of control | T/C (endpoint: median survival time, dose: 16.0 mg/kg/injection, schedule: Q01DX009 (oral), vehicle: water): 97 % of control | T/C (endpoint: median survival time, dose: 16.0 mg/kg/injection, schedule: Q01DX009 (sc), vehicle: water): 108 % of control | T/C (endpoint: median survival time, dose: 16.0 mg/kg/injection, schedule: Q04DX003 (ip), vehicle: water): 124 % of control | T/C (endpoint: median survival time, dose: 32.0 mg/kg/injection, schedule: Q01DX001 (ip), vehicle: water): 155 % of control | T/C (endpoint: median survival time, dose: 32.0 mg/kg/injection, schedule: Q01DX001 (oral), vehicle: water): 96 % of control | T/C (endpoint: median survival time, dose: 32.0 mg/kg/injection, schedule: Q01DX001 (sc), vehicle: water): 108 % of control | T/C (endpoint: median survival time, dose: 32.0 mg/kg/injection, schedule: Q04DX003 (ip), vehicle: water): 106 % of control | T/C (endpoint: median survival time, dose: 64.0 mg/kg/injection, schedule: Q01DX001 (oral), vehicle: water): 103 % of control | T/C (endpoint: median survival time, dose: 128.0 mg/kg/injection, schedule: Q01DX001 (oral), vehicle: water): 102 % of control | T/C (endpoint: median survival time, dose: 256.0 mg/kg/injection, schedule: Q01DX001 (oral), vehicle: water): 102 % of control

Nc1ccc(-c2ccc(N)cc2)cc1
T/C (endpoint: mean survival time, dose: 100.0 mg/kg/injection, schedule: Q01DX009 (ip), vehicle: saline with Tween-80): 94 % of control | T/C (endpoint: mean survival time, dose: 100.0 mg/kg/injection, schedule: Q04DX003 (ip), vehicle: saline with Tween-80): 101 % of control | T/C (endpoint: mean survival time, dose: 200.0 mg/kg/injection, schedule: Q01DX009 (ip), vehicle: saline with Tween-80): 90 % of control | T/C (endpoint: mean survival time, dose: 200.0 mg/kg/injection, schedule: Q04DX003 (ip), vehicle: saline with Tween-80): 101 % of control | T/C (endpoint: mean survival time, dose: 400.0 mg/kg/injection, schedule: Q01DX009 (ip), vehicle: saline with Tween-80): 100 % of control | T/C (endpoint: mean survival time, dose: 400.0 mg/kg/injection, schedule: Q04DX003 (ip), vehicle: saline with Tween-80): 96 % of control

Oc1ccc(O)c(CCCCCc2cc(O)ccc2O)c1
T/C (endpoint: mean survival time, dose: 100.0 mg/kg/injection, schedule: Q01DX009 (ip), vehicle: other): 102 % of control | T/C (endpoint: mean survival time, dose: 200.0 mg/kg/injection, schedule: Q01DX009 (ip), vehicle: other): 98 % of control
